Results from PubChem BioAssay AID2060496 (Molecular Pharmacology Branch, DTP, NCI, 2025).

Test system: 276233-004-R-J1-PDC complex spheroid viability
Assay: Anticancer human tumor 276233-004-R-J1-PDC patient-derived colon adenocarcinoma cell line growth inhibition [GQUAD]
Details: for IC50: curve of first compound; for viability, T/C: stronger effect = lower value
Procedure, shortened: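 Tumor cells were grown as complex spheroids with HUVEC endothelial cells and mesenchymal stem cells as stroma. G-quadruplex stabilizers were combined with targeted agents over half-log dilutions from near the clinical Cmax, or from 10 microM.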

[1] = second compound 0.0316 µM, first compound 0.0316 µM
[2] = second compound 0.0316 µM, first compound 0.316 µM
[3] = second compound 0.1 µM, first compound 0.0316 µM
[4] = second compound 0.1 µM, first compound 0.316 µM
[5] = second compound 0.316 µM, first compound 0.0316 µM
[6] = second compound 0.316 µM, first compound 0.316 µM
[7] = second compound 1 µM, first compound 0.0316 µM
[8] = second compound 1 µM, first compound 0.316 µM
[9] = second compound 3.16 µM, first compound 0.0316 µM
[10] = second compound 3.16 µM, first compound 0.316 µM
[11] = second compound 10 µM, first compound 0.0316 µM
[12] = second compound 10 µM, first compound 0.316 µM
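Note: spheroids exposed to drugs for seven days.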
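Throughout, for viability, T/C: 100% = DMSO vehicle control viability.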

Q: With CC[C@@]1(O)C(=O)OCc2c1cc1n(c2=O)Cc2cc3c(CN(C)C)c(O)ccc3nc2-1 + Cc1cnc(CNC(=O)c2c(=O)c3ccc(N4CCCN(C)CC4)nc3n3c2sc2ccccc23)cn1 as the molecule, how does the IC50 (second compound 0.0316 µM) read?
A: > 316 nM

Q: And the IC50 (second compound 0.1 µM)?
A: > 316 nM

Q: And the IC50 (second compound 0.316 µM)?
A: > 316 nM

Q: What about the IC50 (second compound 1 µM) of the same molecule?
A: > 316 nM

Q: And the IC50 (second compound 3.16 µM)?
A: > 316 nM

Q: And the IC50 (second compound 10 µM)?
A: > 316 nM

Q: And the viability, T/C (second compound 0.0316 µM, first compound 0.000999 µM)?
A: 88.1%

Q: And the viability, T/C (second compound 0.0316 µM, first compound 0.00316 µM)?
A: 94.5%

Q: What about the viability, T/C (second compound 0.0316 µM, first compound 0.00999 µM) of the same molecule?
A: 87.9%

Q: And the viability, T/C [1]?
A: 80%

Q: And the viability, T/C (second compound 0.0316 µM, first compound 0.0999 µM)?
A: 98.7%

Q: And the viability, T/C [2]?
A: 82.5%

Q: What about the viability, T/C (second compound 0.1 µM, first compound 0.000999 µM) of the same molecule?
A: 93.3%

Q: What about the viability, T/C (second compound 0.1 µM, first compound 0.00316 µM) of the same molecule?
A: 101%

Q: And the viability, T/C (second compound 0.1 µM, first compound 0.00999 µM)?
A: 107%

Q: What about the viability, T/C [3] of the same molecule?
A: 83.7%

Q: And the viability, T/C (second compound 0.1 µM, first compound 0.0999 µM)?
A: 87%

Q: What about the viability, T/C [4] of the same molecule?
A: 76%

Q: And the viability, T/C (second compound 0.316 µM, first compound 0.000999 µM)?
A: 83.9%

Q: And the viability, T/C (second compound 0.316 µM, first compound 0.00316 µM)?
A: 90.8%

Q: And the viability, T/C (second compound 0.316 µM, first compound 0.00999 µM)?
A: 106%

Q: What about the viability, T/C [5] of the same molecule?
A: 84.4%

Q: What about the viability, T/C (second compound 0.316 µM, first compound 0.0999 µM) of the same molecule?
A: 87.7%

Q: What about the viability, T/C [6] of the same molecule?
A: 92.7%

Q: And the viability, T/C (second compound 1 µM, first compound 0.000999 µM)?
A: 81%

Q: And the viability, T/C (second compound 1 µM, first compound 0.00316 µM)?
A: 93.9%

Q: What about the viability, T/C (second compound 1 µM, first compound 0.00999 µM) of the same molecule?
A: 87.1%

Q: What about the viability, T/C [7] of the same molecule?
A: 80.5%

Q: And the viability, T/C (second compound 1 µM, first compound 0.0999 µM)?
A: 88.2%

Q: And the viability, T/C [8]?
A: 107%

Q: What about the viability, T/C (second compound 3.16 µM, first compound 0.000999 µM) of the same molecule?
A: 81.9%

Q: And the viability, T/C (second compound 3.16 µM, first compound 0.00316 µM)?
A: 84%

Q: What about the viability, T/C (second compound 3.16 µM, first compound 0.00999 µM) of the same molecule?
A: 80.6%

Q: And the viability, T/C [9]?
A: 87.2%

Q: And the viability, T/C (second compound 3.16 µM, first compound 0.0999 µM)?
A: 82.3%

Q: And the viability, T/C [10]?
A: 80.8%

Q: What about the viability, T/C (second compound 10 µM, first compound 0.000999 µM) of the same molecule?
A: 73.2%

Q: And the viability, T/C (second compound 10 µM, first compound 0.00316 µM)?
A: 67.9%

Q: What about the viability, T/C (second compound 10 µM, first compound 0.00999 µM) of the same molecule?
A: 70.2%

Q: And the viability, T/C [11]?
A: 83.6%

Q: What about the viability, T/C (second compound 10 µM, first compound 0.0999 µM) of the same molecule?
A: 70%

Q: What about the viability, T/C [12] of the same molecule?
A: 89.6%

Q: How did the IC50 (second compound 0.0316 µM) turn out when C=CC(=O)N1CCN(c2nc(=O)n(-c3c(C)ccnc3C(C)C)c3nc(-c4c(O)cccc4F)c(F)cc23)C(C)C1 (centres undefined) + CN(C)c1ccc(Nc2c3ccc(NC(=O)CCN4CCCC4)cc3nc3cc(NC(=O)CCN4CCCC4)ccc23)cc1 was run?
A: > 10000 nM

Q: What about the IC50 (second compound 0.1 µM) of the same molecule?
A: > 10000 nM

Q: What about the IC50 (second compound 0.316 µM) of the same molecule?
A: > 10000 nM

Q: What about the IC50 (second compound 1 µM) of the same molecule?
A: > 10000 nM

Q: And the IC50 (second compound 3.16 µM)?
A: < 31.6 nM

Q: And the IC50 (second compound 10 µM)?
A: > 10000 nM

Q: And the viability, T/C [1]?
A: 93.1%

Q: And the viability, T/C (second compound 0.0316 µM, first compound 0.1 µM)?
A: 90.4%

Q: And the viability, T/C [2]?
A: 106%

Q: And the viability, T/C (second compound 0.0316 µM, first compound 1 µM)?
A: 97.6%

Q: And the viability, T/C (second compound 0.0316 µM, first compound 3.16 µM)?
A: 102%

Q: And the viability, T/C (second compound 0.0316 µM, first compound 10 µM)?
A: 87.6%

Q: And the viability, T/C [3]?
A: 90%

Q: What about the viability, T/C (second compound 0.1 µM, first compound 0.1 µM) of the same molecule?
A: 75.8%

Q: And the viability, T/C [4]?
A: 80.6%

Q: And the viability, T/C (second compound 0.1 µM, first compound 1 µM)?
A: 73.9%

Q: And the viability, T/C (second compound 0.1 µM, first compound 3.16 µM)?
A: 77%

Q: And the viability, T/C (second compound 0.1 µM, first compound 10 µM)?
A: 75.2%

Q: What about the viability, T/C [5] of the same molecule?
A: 67.9%

Q: And the viability, T/C (second compound 0.316 µM, first compound 0.1 µM)?
A: 82.1%

Q: What about the viability, T/C [6] of the same molecule?
A: 68.6%

Q: And the viability, T/C (second compound 0.316 µM, first compound 1 µM)?
A: 58.5%

Q: What about the viability, T/C (second compound 0.316 µM, first compound 3.16 µM) of the same molecule?
A: 71%

Q: And the viability, T/C (second compound 0.316 µM, first compound 10 µM)?
A: 68.9%

Q: What about the viability, T/C [7] of the same molecule?
A: 55.4%

Q: What about the viability, T/C (second compound 1 µM, first compound 0.1 µM) of the same molecule?
A: 47.8%

Q: And the viability, T/C [8]?
A: 62.2%

Q: And the viability, T/C (second compound 1 µM, first compound 1 µM)?
A: 56.6%

Q: And the viability, T/C (second compound 1 µM, first compound 3.16 µM)?
A: 59.1%

Q: And the viability, T/C (second compound 1 µM, first compound 10 µM)?
A: 63.6%

Q: And the viability, T/C [9]?
A: 48.2%

Q: And the viability, T/C (second compound 3.16 µM, first compound 0.1 µM)?
A: 52.1%

Q: What about the viability, T/C [10] of the same molecule?
A: 42.3%

Q: What about the viability, T/C (second compound 3.16 µM, first compound 1 µM) of the same molecule?
A: 44.6%

Q: And the viability, T/C (second compound 3.16 µM, first compound 3.16 µM)?
A: 55.8%

Q: What about the viability, T/C (second compound 3.16 µM, first compound 10 µM) of the same molecule?
A: 45.3%

Q: What about the viability, T/C [11] of the same molecule?
A: 50.6%

Q: What about the viability, T/C (second compound 10 µM, first compound 0.1 µM) of the same molecule?
A: 55.1%

Q: And the viability, T/C [12]?
A: 43.5%

Q: And the viability, T/C (second compound 10 µM, first compound 1 µM)?
A: 53.5%

Q: What about the viability, T/C (second compound 10 µM, first compound 3.16 µM) of the same molecule?
A: 62.6%

Q: What about the viability, T/C (second compound 10 µM, first compound 10 µM) of the same molecule?
A: 47.8%
